Laboratory results reported in patent US9643917B2, “Water-soluble propofol derivatives and uses thereof” (JIANGSU NHWALUOKANG PHARMCEUTICAL RESEARCH AND DEVELOPMENT …, priority 2014, dated 2017).
Like-named read-outs stand apart in the source and are kept apart here. Marks after values point to notes of the source that are not given here.

What was measured:
[1] = rat plasma, 37° C., HPLC
Description: (§1) 0.1 ml samples were taken from each of the solutions, added respectively to 1 ml of blood plasma of rabbit (taken from New Zealand white rabbits, treated according to conventional methods, anticoagulated with heparin) or 1 ml of blood plasma of rat (taken from live SD rats, processed according to conventional methods, anti coagulated with heparin), homogeneously mixed, and placed in a thermostatic water bath at 37° C. for incubation with time being recorded. Samples were taken at different time points after the experiment began, and 2 ml of acetonitrile was immediately added. The samples were shaken and centrifuged for 5 min (15,000 rpm), and the supernatant was then taken for HPLC analysis.

[2] = rabbit plasma, 37° C., HPLC
Description: as §1

[3] = test system: Kunming mice; details: tail intravenous injection, n = 5
Description: Rats and mice were administered with samples having a fixed concentration of drugs, while the volume of administration altered according to actual situation. The volume of administration to rabbits was 1 mL/kg body weight.
The periods during which the righting reflex of mice disappeared (latent period) and recovered (persistent period) were recorded.

[4] = test system: KM mice; details: for TI Mouse: TI=LD50/ED50, mouse; for Mouse ED50: disappearance of righting reflex, caudal vein injection
Description: (§2) Test samples for the experiment on rabbit were formulated to have corresponding concentrations based on the results from a preliminary test. […] Rats and mice were administered with samples having a fixed concentration of drugs, while the volume of administration altered according to actual situation. The volume of administration to rabbits was 1 mL/kg body weight.
(§3) ED50 and LD50 values concerning anesthesia were determined using a sequential method. Healthy KM mice (male), SD rats (male) and New Zealand White rabbits were used for test. […] For rabbits, the compounds were administered by injection at a constant rate via ear vein for 30 seconds. Before the test, a preliminary test was conducted to determine an approximate dosage (volume of administration) that leads to anesthetization (or death) of animals, which was set as the middle dosage in the formal test. […] The disappearance of righting reflex or death was used as indicators of pharmacological efficacy or toxicity, respectively. The formal test began with the administration of the middle dosage. If animals were anesthetized, a lower dosage was administered; if animals were not anesthetized, a higher dosage was administered, until the cycle was repeated for 3-4 times. LD50 and ED50 were calculated by a sequential method aot425 software. TI was calculated according to the following equation: TI=LD50/ED50.

[5] = test system: SD rats; details: for TI Rat: TI=LD50/ED50, rat
Description: as §2, §3

[6] = in vivo; details: male, SD, rat, intravenous, caudal vein injection
Description: as §2, §3

[7] = in vivo; details: male, KM, mouse, intravenous, caudal vein injection, confirmation test
Description: as §2, §3

[8] = dosage 2 * ED50, 3 mg/ml solution
[9] = dosage 2 * ED50, 6 mg/ml solution
[10] = 3 mg/ml solution, confirmation test
[11] = 3 mg/ml solution, first test (*)
[12] = 6 mg/ml solution, confirmation test
[13] = 6 mg/ml solution, first test (*)

Row | Compound | Dissociation percent 5 s [1] [%] | Dissociation percent 15 s [2] [%] | Dissociation percent 30 s [2] [%] | Dissociation percent 15 s [1] [%] | other results
1 | CC(C)c1cccc(C(C)C)c1OC(=O)C(CCC(=O)[O-])C(F)(F)F.[Li+] [F3, propofol 4-carboxyl-2-(R)-2-trifluoromethyl valerate lithium salt] | 47.4 | 28.4 | 47.9 | – | –
2 | CC(C)c1cccc(C(C)C)c1OC(=O)C(CF)CCCCCCC(=O)[O-].CC(C)c1cccc(C(C)C)c1OC(=O)C(CF)CCCCCCC(=O)[O-].CC(C)c1cccc(C(C)C)c1OC(=O)C(CF)CCCCCCC(=O)[O-].[Al+3] (racemic) [F6, tri[propofol 8-carboxyl-2-(R,S)-monofluoromethylpelargonate] aluminum salt] | 34.2 | 37.1 | 58.3 | 55.7 | –
3 | CC(C)c1cccc(C(C)C)c1OC(=O)[C@@H](F)CCOP(=O)([O-])[O-].[Na+].[Na+] [G2, {1-[4-(2,6-diisopropylphenoxy)-4-oxo-3-(S)-3-fluoro-1-butyl]} phosphate monoester disodium salt] | 48.5 | 37.2 | 54.3 | 69.7 | Latent Period [3, 8]: 16.3 ± 0.8 s; Persistent period [3, 8]: 383.6 ± 242.1 s; Latent Period [3, 9]: 15.7 ± 2.3 s; Persistent period [3, 9]: 571 ± 173 s; TI Mouse [4, 10]: 3.0; TI Mouse [4, 11]: 2.8*; TI Mouse [4, 12]: 2.3; TI Mouse [4, 13]: 1.9*; Mouse ED50 [4, 10]: 19.8 mg/kg; Mouse ED50 [4, 11]: 23.7 mg/kg; Mouse ED50 [4, 12]: 22.8 mg/kg; Mouse ED50 [4, 13]: 25.6 mg/kg; TI Rat ([5]; 3 mg/ml solution): 3.3; TI Rat ([5]; 6 mg/ml solution): 2.8; Rat ED50 ([5]; rat, disappearance of righting reflex, caudal vein injection, 6 mg/ml solution): 21.1 mg/kg
4 | CC(C)c1cccc(C(C)C)c1OC(=O)[C@@H](F)CCN1CC1.Cl [E7, propofol 4-(aziridin-1-yl)-2-(S)-2-fluorobutyrate hydrochloride] | 92.3 | 89.4 | 94.4 | – | –
5 | CC(C)c1cccc(C(C)C)c1OC(=O)C(F)CCC(=O)[O-].[K+] [F2, propofol 4-carboxyl-2-(S)-fluorovalerate potassium salt] | 92.3 | 73.4 | 94.8 | – | –
6 | CC(C)c1cccc(C(C)C)c1OC(=O)[C@@H](CCN(C)C)C(F)(F)F.Cl [E3, propofol 4-N,N-dimethylamino-2-(R)-2-trifluoromethylbutyrate hydrochloride] | 77.5 | 51.7 | 67.2 | – | –
7 | CC(C)c1cccc(C(C)C)c1OC(=O)C(CF)CP(=O)([O-])[O-].CC(C)c1cccc(C(C)C)c1OC(=O)C(CF)CP(=O)([O-])[O-].CC(C)c1cccc(C(C)C)c1OC(=O)C(CF)CP(=O)([O-])[O-].[Al+3].[Al+3] (racemic) [G6, tri[propofol 3-phosphoryl-2-(R,S)-2-monofluoromethylpropionate] dialuminum salt] | 22.1 | 27.1 | 44.3 | 39.7 | –
8 | CC(C)c1cccc(C(C)C)c1OC(=O)C(F)C(=O)[O-].[Na+] [F8, Propofol-2-(R)-fluoropropionate monoester sodium salt] | 55.5 | 41.2 | 70.4 | 69.3 | Dissociation percent 30 s [1]: 83.3%
9 | CC(C)c1cccc(C(C)C)c1OC(=O)C(F)CCCCCC(=O)[O-].CC(C)c1cccc(C(C)C)c1OC(=O)C(F)CCCCCC(=O)[O-].[Ca+2] (racemic) [F4, di[propofol 7-carboxyl-2-(R,S)-fluorocaprylate] calcium salt] | 63.8 | 48.3 | 61.7 | – | –
10 | CC(C)c1cccc(C(C)C)c1O [Propofol, 2,6-diisopropylphenol] | – | – | – | – | TI Mouse [4, 10]: 4.9; TI Mouse [4, 12]: 3.8; LD50 ([6]; 3 mg/ml solution): 21.5 mg/kg; LD50 ([6]; 6 mg/ml solution): 17.4 mg/kg; TI Rat ([5]; 3 mg/ml solution): 5.5; TI Rat ([5]; 6 mg/ml solution): 4.9; LD50 ([7]; 3 mg/ml solution): 38.4 mg/kg; LD50 ([7]; 6 mg/ml solution): 42.9 mg/kg
11 | CC(C)c1cccc(C(C)C)c1OC(=O)C(F)CCCC(=O)[O-].CC(C)c1cccc(C(C)C)c1OC(=O)C(F)CCCC(=O)[O-].[Zn+2] [F5, di[propofol 5-carboxyl-2-(S)-fluorohexanoate] zinc salt] | 63.2 | 34.9 | 58.8 | 80.3 | –
12 | CCN(C)CCC(F)C(=O)Oc1c(C(C)C)cccc1C(C)C.Cl (racemic) [E4, propofol 4-N-methyl-N-ethylamino-2-(R,S)-2-fluorobutyrate hydrochloride] | 70.2 | 58.3 | 70.4 | – | –
13 | CC(C)c1cccc(C(C)C)c1OC(=O)[C@@H](F)CCCN(C)Cc1ccccc1.Cl [E5, propofol 5-N-methyl-N-benzylamino-2-(S)-2-fluorovalerate hydrochloride] | 72.3 | 48.4 | 69.7 | 97.3 | –
14 | CC(C)NCC(CF)C(=O)Oc1c(C(C)C)cccc1C(C)C.CS(=O)(=O)O (racemic) [E6, propofol 3-N-isopropylamino-2-(R,S)-2-monofluoromethylpropionate methanesulfonate] | 24.2 | 27.1 | 44.3 | 40.1 | –
15 | CC(C)c1cccc(C(C)C)c1OC(=O)C(F)CCOP(=O)([O-])[O-].[K+].[K+] (racemic) [G1, {1-[4-(2,6-diisopropylphenoxy)-4-oxo-3-(R,S)-3-fluoro-1-butyl]} phosphate monoester dipotassium salt] | 54.1 | 43.7 | 68.7 | 67.4 | Dissociation percent 30 s [1]: 86.9%
16 | CC(C)c1cccc(C(C)C)c1OC(=O)[C@@H](CCOP(=O)([O-])[O-])C(F)(F)F.[Li+].[Li+] [G3, {1-[4-(2,6-diisopropylphenoxy)-4-oxo-3-(R)-3-trifluoromethyl-1-butyl]} phosphate monoester dilithium salt] | 38.7 | 21.7 | 43.6 | – | –
17 | CC(C)c1cccc(C(C)C)c1OC(=O)[C@H](F)CCN1CCCC1.Cl [E8, propofol 4-(pyrrolidin-1-yl)-2-(R)-2-fluorobutyrate hydrochloride] | 95.6 | 91.1 | 98.2 | – | –
